Results as given in US10571387B2, “Apparatus and method for determining the mechanical properties of cells” (Zellmechanik Dresden GmbH, priority 2013, dated 2020).

System: HL60 cells
Test: Real-time deformability measurement (circularity) of cells in shear flow through a microfluidic channel
Type: cell-based
Text: In order to compare the deformation of cells, it is useful to introduce a single parameter to quantify the degree of deformation for each single cell. This can be done in numerous ways. • The circularity of a closed contour is defined by
[formula] where A is the area enclosed by the contour and l is the perimeter.
The circularity relates the ratio of area and perimeter to that of an ideal circle. For an ideal circle c=1. All other shapes result in values smaller than 1. […] For initially spherical cells such as the HL60 cell line the circularity is a very sensitive measure for the induced deformation. However for cells initially having other shapes the circularity may not be the ideal choice, since completely different shapes can lead to the same circularity.
The following experimental protocol is used for all measurements described in this section. For comparability all studies on HL60 cells presented in this application are carried out during the log phase of cell growth (36 h after splitting). Cells are centrifuged for 5 minutes at 800 rpm (which leads to an outward acceleration of about 100 g) using an Eppendorf 5804 R centrifuge (Eppendorf, Hamburg, Germany). […] The viscosity of the medium was measured with a falling sphere viscometer (HAAKE Kugelfallviskosimeter Typ C, Thermo Electron GmbH, Karlsruhe, Germany). […]

Compound: C=C1[C@@H](C)[C@H]2[C@H](Cc3ccccc3)NC(=O)[C@]23[C@H](OC(C)=O)/C=C/[C@@](C)(O)C(=O)[C@@H](C)C/C=C/[C@H]3[C@@H]1O [cytochalasin D]
- circularity (peak of the histogram of circularities) (HL60 cells treated with cytochalasin D (2 mM added to a final concentration of 5 μL/ml, 10 minutes at 37° C.), flow rate 0.04 μl/s, 20×20 μm^2 channel section, real time measurement, FIG. 10A): 0.929±0.04
- deformation compared to untreated cells (HL60 cells treated with cytochalasin D, flow rate of 0.04 μl/s): deform more
